# From ChEMBL document CHEMBL4831528, “Discovery of Novel Pterostilbene-Based Derivatives as Potent and Orally Active NLRP3 Inflammasome Inhibitors with Inflammatory Activity for Colitis” (J Med Chem, 2021)
# Active and inactive are the calls of the source. The rule behind the calls is not given here.
# Key:
# [1] = tested on: Mus musculus; test: Downregulation of IL6 expression in colon of C57BL/6 mouse model of DSS-induced ulcerative colitis at 10 to 20 mg/kg, ig administered for 7 days by ELISA; type: functional, organism-based; details: dose 10-20 mg/kg, time 7.0 day
# [2] = target: NACHT, LRR and PYD domains-containing protein 3 (Mus musculus) (UniProt Q8R4B8); test: Inhibition of NLRP3 inflammasome activation in LPS-stimulated mouse bone marrow-derived macrophages assessed as attenuation of ASC polymer at 1 to 4 uM preincubated for 30 mins followed by nigericin addition and measured after 0.5 hrs by Western blot analysis; type: tissue-based; details: Macrophage, dose 1-4 µM, time 60.0 min
# Chain of NACHT, LRR and PYD domains-containing protein 3 (Mus musculus) (Q8R4B8 whole entry, the tested form may be a part): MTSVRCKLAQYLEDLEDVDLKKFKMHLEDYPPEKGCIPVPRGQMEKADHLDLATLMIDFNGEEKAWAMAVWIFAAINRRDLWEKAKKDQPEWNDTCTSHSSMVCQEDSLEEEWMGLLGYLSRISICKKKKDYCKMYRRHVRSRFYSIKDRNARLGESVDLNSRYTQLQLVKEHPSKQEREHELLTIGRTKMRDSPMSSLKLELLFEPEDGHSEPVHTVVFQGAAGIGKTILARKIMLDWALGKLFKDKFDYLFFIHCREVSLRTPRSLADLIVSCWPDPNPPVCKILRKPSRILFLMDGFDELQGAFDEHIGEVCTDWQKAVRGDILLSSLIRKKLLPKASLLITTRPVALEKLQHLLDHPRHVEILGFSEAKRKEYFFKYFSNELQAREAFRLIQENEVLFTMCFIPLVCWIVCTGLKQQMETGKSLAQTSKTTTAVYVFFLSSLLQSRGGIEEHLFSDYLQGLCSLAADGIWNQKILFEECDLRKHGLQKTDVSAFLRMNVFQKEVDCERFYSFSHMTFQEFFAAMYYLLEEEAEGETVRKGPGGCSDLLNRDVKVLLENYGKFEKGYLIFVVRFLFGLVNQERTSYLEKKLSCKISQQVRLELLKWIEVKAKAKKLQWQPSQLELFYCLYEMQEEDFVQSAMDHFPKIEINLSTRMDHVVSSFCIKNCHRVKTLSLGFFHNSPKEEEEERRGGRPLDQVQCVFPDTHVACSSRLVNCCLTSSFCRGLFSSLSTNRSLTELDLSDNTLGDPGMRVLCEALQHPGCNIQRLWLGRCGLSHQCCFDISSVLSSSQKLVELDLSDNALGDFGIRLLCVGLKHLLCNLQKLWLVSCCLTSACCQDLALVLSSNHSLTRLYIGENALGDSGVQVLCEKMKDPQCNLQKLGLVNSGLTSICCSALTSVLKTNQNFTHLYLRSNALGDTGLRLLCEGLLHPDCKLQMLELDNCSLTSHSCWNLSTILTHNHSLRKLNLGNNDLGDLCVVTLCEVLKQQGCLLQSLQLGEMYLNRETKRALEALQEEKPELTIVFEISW
# [3] = target: NACHT, LRR and PYD domains-containing protein 3 (Mus musculus) (UniProt Q8R4B8); test: Inhibition of NLRP3 inflammasome activation in LPS-stimulated mouse bone marrow-derived macrophages assessed as reduction in cleaved IL-1beta secretion in supernatant at 2 uM preincubated for 30 mins followed by ATP addition and measured after 0.5 hrs by Western blot analysis; type: tissue-based; details: Macrophage, time 60.0 min
# [4] = target: NACHT, LRR and PYD domains-containing protein 3 (Mus musculus) (UniProt Q8R4B8); test: Inhibition of NLRP3 inflammasome activation in LPS-stimulated mouse bone marrow-derived macrophages assessed as reduction in pro caspase1 p20 in cell lysate at 2 uM preincubated for 30 mins followed by ATP addition and measured after 0.5 hrs by Western blot analysis; type: subcellular; details: Macrophage, time 60.0 min
# [5] = target: NACHT, LRR and PYD domains-containing protein 3 (Mus musculus) (UniProt Q8R4B8); test: Inhibition of NLRP3 inflammasome activation in LPS-stimulated mouse bone marrow-derived macrophages assessed as reduction in cleaved IL-1beta secretion in supernatant at 2 uM preincubated for 30 mins followed by nigericin addition and measured after 0.5 hrs by Western blot analysis; type: tissue-based; details: Macrophage, time 60.0 min
# [6] = Half life in mouse liver microsomes preincubated for 5 mins followed by NADPH addition and measured after 5 to 60 mins by LC-MS/MS analysis; type: ADME, Microsome; details: time 5-60 min
# [7] = tested on: Mus musculus; test: Protection against DSS-induced acute ulcerative colitis in C57BL/6 mouse assessed as reduction in adhesion of colon at 10 to 20 mg/kg, ig administered for 7 days; type: functional, organism-based; details: dose 10-20 mg/kg, time 7.0 day
# [8] = target: NACHT, LRR and PYD domains-containing protein 3 (Mus musculus) (UniProt Q8R4B8); test: Inhibition of NLRP3 inflammasome activation in LPS-stimulated mouse bone marrow-derived macrophages assessed as reduction in caspase1 secretion at 1 to 4 uM preincubated for 30 mins followed by nigericin addition and measured after 0.5 hrs by Western blot analysis; type: tissue-based; details: Macrophage, dose 1-4 µM
# [9] = Toxicity in C57BL/6 mouse assessed as effect on lung at 20 to 40 mg/kg, ig administered for 28 days; type: organism-based; details: in vivo, po, 672 h, dose 20-40 mg/kg, time 28 day
# [10] = target: NACHT, LRR and PYD domains-containing protein 3 (Mus musculus) (UniProt Q8R4B8); test: Inhibition of NLRP3 inflammasome activation in LPS-stimulated mouse bone marrow-derived macrophages assessed as reduction in activated caspase1 p20 in supernatant at 2 uM preincubated for 30 mins followed by nigericin addition and measured after 0.5 hrs by Western blot analysis; type: tissue-based; details: Macrophage, time 60.0 min
# [11] = tested on: Macrophage; test: Inhibition of NFkappaB activation in LPS-stimulated mouse bone marrow-derived macrophages assessed as reduction in TNFalpha secretion at 0.5 to 2 uM preincubated for 30 mins followed by nigericin addition and measured after 30 mins by ELISA; type: tissue-based; details: dose 0.5-2 µM, time 60.0 min
# [12] = Toxicity in C57BL/6 mouse assessed as induction of convulsion at 20 to 40 mg/kg, ig administered for 28 days; type: organism-based; details: in vivo, po, 672 h, dose 20-40 mg/kg, time 28 day
# [13] = Toxicity in C57BL/6 mouse assessed as weight loss at 20 to 40 mg/kg, ig administered for 28 days; type: organism-based; details: in vivo, po, 672 h, dose 20-40 mg/kg, time 28 day
# [14] = target: NACHT, LRR and PYD domains-containing protein 3 (Mus musculus) (UniProt Q8R4B8); test: Inhibition of NLRP3 inflammasome activation in LPS-stimulated mouse bone marrow-derived macrophages assessed as reduction in cleaved IL-1beta secretion preincubated for 30 mins followed by nigericin addition and measured after 30 mins by Western blot analysis; type: tissue-based; details: Macrophage, time 60.0 min
# [15] = tested on: BMDM; test: Effect on pro-caspase1(p45) expression in LPS-stimulated mouse bone marrow-derived macrophages at 0.5 to 2 uM preincubated for 30 mins followed by nigericin addition and measured after 30 mins by Western blot analysis; type: functional, tissue-based; details: dose 0.5-2 µM, time 60.0 min
# [16] = target: NACHT, LRR and PYD domains-containing protein 3 (Mus musculus) (UniProt Q8R4B8); test: Inhibition of NLRP3 inflammasome activation in LPS-stimulated mouse bone marrow-derived macrophages assessed as reduction in pro caspase1 in cell lysate at 2 uM preincubated for 30 mins followed by MSU addition and measured after 0.5 hrs by Western blot analysis; type: subcellular; details: Macrophage, time 60.0 min
# [17] = target: NACHT, LRR and PYD domains-containing protein 3 (Mus musculus) (UniProt Q8R4B8); test: Inhibition of NLRP3 inflammasome activation in LPS-stimulated mouse bone marrow-derived macrophages assessed as reduction in pro IL-1beta secretion in cell lysate at 2 uM preincubated for 30 mins followed by nigericin addition and measured after 0.5 hrs by Western blot analysis; type: subcellular; details: Macrophage, time 60.0 min
# [18] = tested on: BMDM; test: Effect on pro-caspase1 expression in LPS-stimulated mouse bone marrow-derived macrophages at 0.5 to 2 uM preincubated for 30 mins followed by nigericin addition and measured after 30 mins by Western blot analysis; type: functional, tissue-based; details: dose 0.5-2 µM, time 60.0 min
# [19] = Toxicity in C57BL/6 mouse assessed as effect on liver at 20 to 40 mg/kg, ig administered for 28 days; type: organism-based; details: in vivo, po, 672 h, dose 20-40 mg/kg, time 28 day
# [20] = Intrinsic clearance in human liver microsomes preincubated for 5 mins followed by NADPH addition and measured after 5 to 60 mins by LC-MS/MS analysis; type: ADME, Microsome; details: time 5-60 min, read-out: CLH
# [21] = target: NACHT, LRR and PYD domains-containing protein 3 (Mus musculus) (UniProt Q8R4B8); test: Inhibition of NLRP3 inflammasome activation in LPS-stimulated mouse bone marrow-derived macrophages assessed as reduction in caspase1 p20 secretion preincubated for 30 mins followed by nigericin addition and measured after 30 mins by Western blot analysis; type: tissue-based; details: Macrophage, time 60.0 min
# [22] = tested on: Mus musculus; test: Downregulation of phosphorylated p65 expression in colon of C57BL/6 mouse model of DSS-induced ulcerative colitis at 10 to 20 mg/kg, ig administered for 7 days by Western blot analysis; type: functional, organism-based; details: dose 10-20 mg/kg, time 7.0 day
# [23] = tested on: Mus musculus; test: Downregulation of COX2 expression in colon of C57BL/6 mouse model of DSS-induced ulcerative colitis at 10 to 20 mg/kg, ig administered for 7 days by Western blot analysis; type: functional, organism-based; details: dose 10-20 mg/kg, time 7.0 day
# [24] = AUC (0 to infinity) in mouse at 20 mg/kg, po measured up to 24 hrs by LC-MS/MS analysis; type: ADME, organism-based; set-up: route oral, dose 20 mg/kg, time <=24; details: in vivo
# [25] = tested on: Mus musculus; test: Downregulation of TNFalpha expression in C57BL/6 mouse model of DSS-induced ulcerative colitis at 10 to 20 mg/kg, ig administered for 7 days by ELISA; type: functional, organism-based; details: dose 10-20 mg/kg, time 7.0 day
# [26] = target: NACHT, LRR and PYD domains-containing protein 3 (Mus musculus) (UniProt Q8R4B8); test: Inhibition of NLRP3 inflammasome activation in LPS-stimulated mouse bone marrow-derived macrophages assessed as reduction in NEK7-NLRP3 protein-protein interaction preincubated for 30 mins followed by nigericin addition and measured after 30 mins by immunoprecipitation method; type: tissue-based; details: Macrophage, time 60.0 min
# [27] = Tmax in mouse at 20 mg/kg, po measured up to 24 hrs by LC-MS/MS analysis; type: ADME, organism-based; details: in vivo
# [28] = Clearance in mouse at 2 mg/kg, iv measured after 0.08 to 24 hrs by LC-MS/MS analysis; type: ADME, organism-based; details: in vivo, time 0.08-24 hrs
# [29] = target: NACHT, LRR and PYD domains-containing protein 3 (Mus musculus) (UniProt Q8R4B8); test: Inhibition of NLRP3 inflammasome activation in LPS-stimulated mouse bone marrow-derived macrophages assessed as reduction in pro IL-1beta secretion in cell lysate at 2 uM preincubated for 30 mins followed by ATP addition and measured after 0.5 hrs by Western blot analysis; type: subcellular; details: Macrophage, time 60.0 min
# [30] = tested on: Mus musculus; test: In vivo inhibition of NLRP3 inflammasome activation in C57BL/6 mouse model of DSS-induced ulcerative colitis assessed as reduction in IL-1beta expression at 10 to 20 mg/kg, ig administered for 7 days by ELISA; type: functional, organism-based; details: dose 10-20 mg/kg, time 7.0 day
smiles,measurement,setting,value
COc1cc(/C=C/c2ccc(NC(=O)C3CC3)cc2)c(/C=C/[N+](=O)[O-])c(OC)c1,Activity,[1],Active
same,inhibition,[2],Active
same,inhibition,[3],Active
same,inhibition,[4],Active
same,inhibition,[5],Active
same,half-life,[6],0.722 h
same,Activity,[7],Active
same,inhibition,[8],Active
same,Activity,[9],Non-Toxic
same,inhibition,[10],Active
same,inhibition,[11],inactive
same,Activity,[12],Non-Toxic
same,Activity,[13],Non-Toxic
same,inhibition,[14],Dose-Dependent Effect
same,Activity,[15],inactive
same,inhibition,[16],Active
same,inhibition,[17],Active
same,Activity,[18],inactive
same,Activity,[19],Non-Toxic
same,microsomal CLint,[20],20.3 µL/min/mg
same,inhibition,[21],Dose-Dependent Effect
same,Activity,[22],Active
same,Activity,[23],Active
same,AUC,[24],845.93 ng·h/mL
same,Activity,[25],Active
same,inhibition,[26],Dose-Dependent Effect
same,Tmax,[27],2.33 h
same,clearance,[28],87.5 mL/min/kg
same,inhibition,[29],Active
same,inhibition,[30],Active
